Reference: patent publication US20240262812A1, “N-SUBSTITUTED PHENYLSULFONAMIDE COMPOUND AND USE THEREOF” (Shanghai Leado Pharmatech Co., Ltd., priority 2021, published 2024)
Values belong to the molecule of their own block, whether it stands above or below them.

What was measured:
[1] = system: acute gastric mucosal injury; conditions: background; cited from earlier work
[2] = system: DNBS, TNBS, or DSS induced colitis; conditions: administration of selective TRPA1 inhibitor; background; cited from earlier work
[3] = system: DNBS induced colitis in Wistar rats; test: DNBS induced colitis model in Wistar rats; assay type: in vivo, rat; parameters: Degree of adhesion (score) / Degree of intestinal infarction (score) / Severity of ulcer (score) / Degree of intestinal wall thickening (score) / Macroscopic colon score: scale not given here; conditions: oral once a day Day 0 to Day 6, compounds 10 mg/kg, osalazine sodium 300 mg/kg
Text: The therapeutic effect of compounds prepared in some examples of the present invention on 2,4-dinitrobenzenesulfonic acid (DNBS) induced ulcerative colitis in Wistar rats (corresponding to Crohn's disease) was investigated.
• Animal species and strains: Wistar rats • Administration record: No administration history • Gender and weight: Male, about 150 g • Breeding party/supplier: Shanghai SLAC Laboratory Animal Co., Ltd • Adaptation period: 5 days • Room: Regular Area Rooms • Indoor temperature: 20-26° C. • Indoor relative humidity: 40-70% • Lighting: Fluorescent lighting, 12-hour illumination (08:00-20:00) and 12-hour no illumination • Animal feeding: 2-4 rats per cage (same administration group) • Food: Unlimited access to feed (disinfected by irradiation, Jiangsu Xietong Pharmaceutical Bio-engineering Co., Ltd., China) • Water: Unlimited access to drinking water (treated with reverse osmosis and high-pressure sterilization)
A total of 80 Wistar rats were purchased from Shanghai SLAC Laboratory Animal Co., Ltd, of which 10 were used as backup animals to select animals with suitable weight range included in the groups, in order to control the fluctuation of disease severity caused by weight fluctuations.
BioBook software was used to screen 70 animals for random grouping based on animal weight to ensure that the weight values of each group of animals were similar to reduce bias.
3.1 DNBS powder was dissolved in 30% ethanol with a final concentration of 60 mg/mL.
3.2 Induction of colorectal inflammation: Before the experiment, rats were fasted for 40 hours and subcutaneously injected with 5% glucose saline during the fasting period. On the day 0 of the experiment, fasting rats were anesthetized by intraperitoneal injection of Zoletil and 5 mg/kg Xylazine. G2 group-G7 group, a hose was extended from the anus to the left curvature of the colorectum, and colorectal inflammation in rats was induced with DNBS enema. The normal control group (G1) was treated with 30% ethanol enema using the same method.
3.3. Dosage regimen: After DNBS induction in G1 and G2 groups of animals, solvent was administered. After DNBS induction in G3 group, 300 mg/kg of oxalazine sodium was administered. After DNBS induction in G4 to G7 groups, 10 mg/kg of the compounds of the present invention were administered respectively. Please refer to Table 3 for the administration time, specific administration dosage, and administration route. Starting from day 0 of modeling, the drugs were administered continuously for 7 days, and the animals were euthanized on day 6.
3.4 Testing indicators: After the experiment, all animals were euthanized by inhaling excessive CO2 and dislocation of cervical vertebra. After the abdominal cavity was cut open, the colorectum was taken out and the length of it was immediately measured. Then the colorectum was longitudinally cut open and rinsed clean. The weight of the colorectum and the area of the ulcer were recorded and the whole was photographed. At the same time, the damage to the rat colorectum was evaluated macroscopically according to Table 4.
The health status of animals and their comprehensive response to surgery and medication were observed every day.
The experimental data was calculated as mean±standard error. Statistical analysis was performed using Graphpad Prism, SPSS, or Sigmaplot software. The specific data is presented in the form of charts. P<0.05 is considered to have statistical differences.

[4] = biological target: T1, chemokine receptor CCR9 (Homo sapiens, UniProt P51686); test: CCR9 antagonistic activity, calcium flow (Fluo-4, FlexStation), CCL25 agonist; assay type: cell-based; conditions: antagonistic mode, CCL25 150 nM; for inhibition at 100 µM: read-out: Inhibition rate (%) (100 μM)
T1 construct: expressed in transfected cells
T1 sequence (P51686 1-369): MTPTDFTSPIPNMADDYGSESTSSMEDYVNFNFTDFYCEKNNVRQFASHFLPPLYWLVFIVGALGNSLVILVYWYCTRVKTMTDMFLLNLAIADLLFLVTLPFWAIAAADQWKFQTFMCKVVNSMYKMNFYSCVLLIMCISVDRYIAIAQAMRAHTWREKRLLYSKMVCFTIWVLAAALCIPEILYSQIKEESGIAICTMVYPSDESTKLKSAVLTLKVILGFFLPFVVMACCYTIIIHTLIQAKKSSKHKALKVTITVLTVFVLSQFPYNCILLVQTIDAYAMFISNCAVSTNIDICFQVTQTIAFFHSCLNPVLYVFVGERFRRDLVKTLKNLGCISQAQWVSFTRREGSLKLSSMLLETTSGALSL
Text: 2.1 Main reagents: DMEM culture medium (GIBCO); dimethyl sulfoxide (Sigma); FLUO-4, AM (Invitrogen) 2.2 Main instrument: Flexstation-3 (Molecular Devices) The test concentration gradient of the compound and replicates were set according to the requirement of testing ICSO. All test substances with 8 concentrations were set, with 3 replicates for each concentration. By establishing a cell line that cotransformed the receptor and G16, the receptor being activated can induce the activation of Gα16 protein, thereby activating phospholipase C (PLC) to produce IP3 and DAG. IP3 can bind to the IP3 receptor on the intracellular endoplasmic reticulum and mitochondria, leading to the release of intracellular calcium. Therefore, measuring changes in intracellular calcium can serve as a method for detecting the activation status of target receptor. Fluo-4/AM is a calcium fluorescent probe indicator used to measure calcium ion, as a non-polar lipophilic compound, under the action of cell lipase after entering cells, the AM group dissociates and releases Fluo-4; since Fluo-4 is a polar molecule, it is not easy to pass through lipid bilayers, allowing it to remain in the cell for a long time. Ultimately, the level of G protein activation can be reflected by measuring the excited fluorescence intensity. […] Cells stably expressing the target receptor/Ga16 were planted on a 96 well plate and cultured overnight. 2. The culture solution was removed from the well planted cells, then 40 μL/well of freshly prepared dye was added. The mixture was incubated at a constant temperature in a 37° C. incubator for 40 minutes. 3. The drug to be tested was diluted with calcium buffer and mixed well. 4. The dye was absorbed and discarded. After washed once with freshly prepared calcium buffer, 50 μL of calcium buffer that dissolved the drug to be tested was added for replacement. 5. The FlexStation II instrument was used for detection. Starting from the 15th second, […] dissolved with known agonist was automatically added by the instrument, and finally the fluorescence value at 525 nm was readed. The following formula was used to calculate the cell response rate (% Response) for each sample under each concentration. […] IC50 value was calculated using GraphPad Prism.

[5] = biological target: T2, mTRPA1 (Mus musculus, UniProt Q8BLA8); test: IonWorks Barracuda (IWB) automated patch clamp, TRPA1 inhibitory activity; assay type: cell-based; conditions: HEK293 cells stably expressing mTRPA1, current induced by AITC, amplitude at +100 mV; read-out: IC50 (inhibition activity on TRPA1)
T2 construct: expressed in transfected cells
T2 sequence (Q8BLA8 whole entry): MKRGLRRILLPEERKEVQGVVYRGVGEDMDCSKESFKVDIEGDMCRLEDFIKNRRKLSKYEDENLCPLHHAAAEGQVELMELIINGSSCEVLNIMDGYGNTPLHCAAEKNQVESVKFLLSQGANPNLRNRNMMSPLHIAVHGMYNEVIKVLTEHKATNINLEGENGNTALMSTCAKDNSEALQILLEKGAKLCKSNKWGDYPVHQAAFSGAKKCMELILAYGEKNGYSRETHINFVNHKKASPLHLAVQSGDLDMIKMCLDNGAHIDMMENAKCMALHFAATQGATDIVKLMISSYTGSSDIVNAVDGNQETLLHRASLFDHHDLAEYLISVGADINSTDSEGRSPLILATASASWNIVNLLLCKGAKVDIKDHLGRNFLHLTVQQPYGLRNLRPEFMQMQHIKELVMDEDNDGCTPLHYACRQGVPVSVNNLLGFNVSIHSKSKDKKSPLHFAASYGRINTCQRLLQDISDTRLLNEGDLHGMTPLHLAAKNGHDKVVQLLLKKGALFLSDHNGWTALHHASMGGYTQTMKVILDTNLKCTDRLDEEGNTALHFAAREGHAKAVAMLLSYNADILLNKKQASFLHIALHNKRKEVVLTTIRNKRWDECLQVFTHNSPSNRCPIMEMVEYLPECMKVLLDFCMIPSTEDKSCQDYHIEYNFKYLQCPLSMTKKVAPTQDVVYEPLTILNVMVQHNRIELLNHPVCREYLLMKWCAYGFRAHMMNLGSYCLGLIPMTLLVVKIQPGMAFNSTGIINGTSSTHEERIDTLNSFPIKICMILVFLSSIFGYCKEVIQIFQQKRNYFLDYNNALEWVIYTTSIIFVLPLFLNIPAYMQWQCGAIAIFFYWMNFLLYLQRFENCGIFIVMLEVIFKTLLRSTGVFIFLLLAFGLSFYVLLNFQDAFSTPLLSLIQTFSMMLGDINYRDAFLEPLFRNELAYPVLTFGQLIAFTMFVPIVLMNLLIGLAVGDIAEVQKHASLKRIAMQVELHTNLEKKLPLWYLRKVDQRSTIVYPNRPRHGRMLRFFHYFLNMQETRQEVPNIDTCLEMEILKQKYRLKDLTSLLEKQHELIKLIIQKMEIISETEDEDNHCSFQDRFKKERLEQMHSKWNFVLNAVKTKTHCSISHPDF
How it was run: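 HEK293 cells stably expressing mouse TRPA1, perforated-patch whole-cell recording (amphotericin B) on IonWorks Barracuda; holding 0 mV, −100 to +100 mV ramp over 300 ms every 10 s. Current evoked by 300 µM AITC, leak-subtracted, amplitude taken at +100 mV; IC50 from fitted dose-effect curves, HC030031 as plate reference.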

SMILES: CC(C)c1ccc(NC(=O)Cn2cnc3c2c(=O)n(C)c(=O)n3C)cc1 [HC-030031, HC030031]
- result in rat model of acute gastric mucosal injury [1]: showed positive result
- symptom of colitis in animals [2]: significantly alleviated the symptom of colitis in animals

SMILES: O=C([O-])c1cc(/N=N/c2ccc(O)c(C(=O)[O-])c2)ccc1O.[Na+].[Na+] [osalazine sodium, reference compound]
- Degree of adhesion (score) ([3]; mean score per Table 4): 0.00
- Degree of intestinal infarction (score) ([3]; mean score per Table 4): 0.00
- Degree of intestinal wall thickening (score) ([3]; mean score per Table 4): 0.40
- Severity of ulcer (score) ([3]; mean score per Table 4): 1.50
- Macroscopic colon score ([3]; mean total score): 1.90
- Colon length ([3]; mean): 14.33 cm
- Colon weight ([3]; mean): 1.41 g
- Ulcer area ([3]; mean): 0.30 cm^2
- Ulcer length ([3]; mean): 0.71 cm
- Ulcer width ([3]; mean): 0.34 cm

SMILES: O=C([O-])c1cc(/N=N/c2ccc(O)c(C(=O)[O-])c2)ccc1O.[Na+].[Na+] [oxalazine sodium, reference compound]
- Colon weight ([3]; mean): significantly reduce
- Ulcer area ([3]; mean): significantly reduce

- inhibition at 100 µM [4]: 10%
- IC50 [4]: > 100 µM
- IC50 [5]: 1 to 5 µM
SMILES: O=S(=O)(Nc1ccc(CNC2CC2)cc1-c1ccco1)c1ccsc1 [IA-33, N-(4-((cyclopropylamino)methyl)-2-(furan-2-yl)phenyl)thiophene-3-sulfonamide]

- inhibition at 100 µM [4]: 17%
- IC50 [4]: > 100 µM
- IC50 [5]: 1 to 5 µM
SMILES: CNCc1ccc(-n2cccn2)c(NS(=O)(=O)c2ccccc2)c1 [IQ-2, N-(5-((methylamino)methyl)-2-(1H-pyrazol-1-yl)phenyl)benzenesulfonamide]

- inhibition at 100 µM [4]: 13%
- IC50 [4]: > 100 µM
- IC50 [5]: < 1 µM
SMILES: NCc1ccc(-c2ccco2)c(NS(=O)(=O)c2ccsc2)c1 [ID-3, N-(5-(aminomethyl)-2-(furan-2-yl)phenyl)thiophene-3-sulfonamide]

- inhibition at 100 µM [4]: 0%
- IC50 [4]: > 100 µM
- IC50 [5]: 1 to 5 µM
SMILES: CNCc1ccc(-c2ccco2)c(NS(=O)(=O)c2ccccc2OC)c1 [IA-5, 2-Methoxy-N-(2-(furan-2-yl)-5-((methylamino)methyl)phenyl)benzenesulfonamide]
